According to US9040250B2, “Binding interaction of proanthocyanidins with bacteria and bacterial components” (The United States of America, as represented by the …, priority 2006, dated 2015):
Like-named read-outs stand apart in the source and are kept apart here.

Assays:
[1] = system: FITC-labeled LPS (from E. coli 055:B5); assay: Fluorescence-based pull down assay of FITC-LPS with Sepharose-immobilized PACs; assay type: binding, Escherichia coli; settings: for IC50: PAC beads equilibrated with lipid A, 3 μg/mL FITC-LPS (approx. 3 nM)
Procedure: PAC and catechin immobilization—Purified PACs and catechin (Sigma-Aldrich) were immobilized onto activated thiol-Sepharose® 4B (Sigma-Aldrich) via a (N-[p-maleimidophenyl]isocyanate) (PMPI; Pierce) crosslinker. Sepharose® was swelled in deionized water for 1 hour (1 g dry material in 15 mL H2O). The material was then washed using fresh dI-H2O over five suspend/centrifuge/decant cycles (total 50 mL per gram dry starting material). Suspension was accomplished using a vortex and centrifuge steps were conducted at 3,000 g for five minutes. The Sepharose® material (total volume 5 mL per gram starting material) was then rinsed three times with ethanol (total volume 30 mL per gram starting material). The PMPI crosslinker was incubated with the rinsed Sepharose material for 1 hour at room temperature under constant agitation using a 10-fold molar excess of PMPI over the thiol-group concentration with 3% dimethylsulfoxide in ethanol (10 mL per gram starting material). Incubation was followed by centrifuging, decanting, and rinsing in 50% ethanol for three cycles. The Sepharose was then incubated overnight at 4° C. in ethanol with PAC or catechin using a 10-fold molar excess of analyte in 50% ethanol (10 mL per gram starting material). As a final step, the Sepharose was rinsed over four cycles using 50% ethanol (40 mL total per gram starting material) and resuspended in 0.02% sodium azide in H2O (16 mL final volume per gram starting material). The materials were stored in the dark at 4° C. until use. PAC concentrations for bead sets were determined by Prussian blue assay.
Fluorescence-based pull down assays for lipopolysaccharide (LPS) were conducted in 50 mM TRIS at pH 8.0 using Sepharose-immobilized PACs and agarose-immobilized polymyxin B (Sigma-Aldrich, St. Louis, Mo.). […] The fluorescence of the FITC-labeled LPS (from E. coli 055:B5; Sigma-Aldrich) was measured using a Tecan XSafire monochrometer-based micro plate reader at 495 nm excitation and 520 nm emission (5 nm bandwidths). […]

[2] = system: HEK 293 cells stably expressing human CD14 and TLR4/MD2; assay: LPS membrane binding in HEK-CD14-TLR4/MD2 cells; assay type: cell-based; settings: 25 nM LPS, 1.5 h 37° C.; 0.5 μM PAC; antibodies 500 nM in binding sites
Procedure: (§1) Analysis of LPS membrane binding and endocytosis. Human embryonic kidney cells (HEK 293) stably expressing human CD14 and TLR4/MD2 (HEK-CD14-TLR4/MD2; Invivogen) were grown in chambered wells and incubated with 25 nM LPS (E. coli serotype O55:B5, Sigma) in the absence or presence of 0.5 μM LH20 PAC (Dial>6K) for 1.5 h at 37° C. […] After incubation, the cells were washed with PBS (10 min) twice and either fixed (with 3.7% paraformaldehyde) to assess LPS membrane binding or fixed and permeabilized (with 0.1% Triton X-100) to determine LPS internalization. After blocking with 1% normal goat serum, membrane bound or internalized LPS was detected using a goat anti-LPS antibody (O/K serotype-specific, Abcam) conjugated to fluorescein. Nuclei were counterstained with DAPI. Imaging was performed using an Olympus IX-71 microscope. The relative amounts of membrane-associated or intracellular fluorescence were quantified by image analysis using Image J software (NIH, v. 1.37). Data is reported as the mean channel fluorescence from membrane-associated or internalized LPS and represents the analysis of 10 to 20 cells from each sample (minimum 10 measurements per each cell). Merged images were produced using Photoshop CS2 (ver. 9).

[3] = system: HEK 293 cells stably expressing human CD14 and TLR4/MD2; assay: LPS endocytosis (internalization) in HEK-CD14-TLR4/MD2 cells; assay type: cell-based; settings: 25 nM LPS, 1.5 h 37° C.; 0.5 μM PAC; antibodies 500 nM in binding sites
Procedure: as §1

HEK-CD14-TLR4/MD2 cells = assay: Cytotoxicity, CellTiter96 cell proliferation assay; assay type: cell-based, human; settings: 48 h culture
Procedure: Cytotoxicity assays—Cellular toxicity was measured using a calorimetric cell proliferation assay (CellTiter96™, Promega). HEK-CD14-TLR4/MD2 cells were seeded into the wells of a 96-well plate (1×10^4 cells/well) and cultured with a dose range of test compounds for 48 h prior to assay according to the manufacturer's instructions.

[4] = system: LPS-FITC (E. coli 055:B5); assay: LPS-FITC binding by PACs immobilized on glass waveguide (stationary assay); design: species or system Escherichia coli; settings: patterned at 10 mg/mL via PMPI; LPS-FITC 1 hour
From the text: Immobilization of PACs and LPS binding assay—To determine the ability of PAC materials to effectively bind bacteria and bacterial cell components upon immobilization to a solid support, PACs from cranberry and grape juices were covalently attached to the surface of a glass microscope slide (waveguide) using a modification of a common technique used for protein immobilization (Rowe et al., Anal. Chem., 71, 3846 (1999)). Catechin monomer and buffer only areas were also included as controls. Briefly, the waveguides, glass microscope slides (Daigger, Wheeling, Ill.), were cleaned by immersion in potassium hydroxide/methanol solution (Cras et al., Biosens. Bioelectron., 14, 683 (1999)) followed by rinsing and drying. The clean waveguides were then incubated with 2% (3-mercaptopropyl)triethoxysilane (Pierce Chemicals, Rockford, Ill.) in toluene for 45 minutes followed by rinsing and drying. The slides were immersed in 1.8 mM N-[p-maleimidophenyl]isocyanate (PMPI) in ethanol for 1 hour. The maleimide-group of PMPI reacts with the sulfhydryl-group provided by the silane reaction leaving the isocyanate-group free to react with the hydroxyl-groups of PACs. […] Slides were imaged using evanescent wave fluorescence spectroscopy with excitation at 496 nm and emission collected above 515 nm. […]

Row | Substance | IC50 ([1]; read-out: IC50, inhibition of FITC-LPS binding by immobilized PACs from cranberries) | IC50 ([1]; read-out: IC50, inhibition of FITC-LPS binding by immobilized PACs from tea) | inhibition of FITC-LPS binding by immobilized PACs at high lipid A concentration ([1]; lipid A concentrations as high as 100 μM) | decrease in membrane-bound LPS (LPS binding inhibition) [2] | inhibition of LPS endocytosis [3] | concentrations at which no toxicity was elicited (HEK-CD14-TLR4/MD2 cells) | binding of LPS-FITC by material immobilized on waveguide [4]
1 | diphosphoryl lipid A | 500 nM | 100 nM | ≤ 80% | did not significantly reduce LPS membrane binding | 84% | below 3 μM | –
2 | catechin | – | – | – | – | – | – | no binding even at the highest concentrations tested
